{"source": "patent US20070037149A1", "about": "“Human calcium transporter 1 gene, screening method of calcium absorption regulating factor, and calcium absorption regulating factor” (priority 2003, published 2007)", "key": {"human CaT1 [1]": {"target": "T1, human CaT1 (Homo sapiens, UniProt Q9H1D0, I526V)", "T1 construct": "expressed in transfected cells", "T1 sequence (Q9H1D0 45-765 I526V)": "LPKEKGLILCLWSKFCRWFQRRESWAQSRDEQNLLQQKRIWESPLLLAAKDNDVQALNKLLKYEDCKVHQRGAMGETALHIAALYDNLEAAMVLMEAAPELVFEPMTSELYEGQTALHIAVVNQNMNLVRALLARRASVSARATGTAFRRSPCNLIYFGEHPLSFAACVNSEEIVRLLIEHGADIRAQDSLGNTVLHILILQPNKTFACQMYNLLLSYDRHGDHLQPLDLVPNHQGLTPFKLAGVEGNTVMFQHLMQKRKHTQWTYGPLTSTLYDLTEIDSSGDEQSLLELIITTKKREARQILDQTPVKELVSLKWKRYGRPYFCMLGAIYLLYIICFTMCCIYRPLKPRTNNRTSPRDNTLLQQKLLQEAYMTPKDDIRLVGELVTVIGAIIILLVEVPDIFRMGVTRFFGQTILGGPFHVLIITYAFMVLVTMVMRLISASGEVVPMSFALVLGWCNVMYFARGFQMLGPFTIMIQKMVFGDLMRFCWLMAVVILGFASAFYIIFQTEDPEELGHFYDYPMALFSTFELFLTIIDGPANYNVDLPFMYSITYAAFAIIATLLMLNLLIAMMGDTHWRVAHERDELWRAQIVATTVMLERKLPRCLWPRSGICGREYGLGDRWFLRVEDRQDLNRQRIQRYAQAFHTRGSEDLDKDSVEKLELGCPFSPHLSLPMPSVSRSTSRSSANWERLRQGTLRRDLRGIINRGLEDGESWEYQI", "experiment": "45Ca2+ uptake by human CaT1 constant expression cells (CHO cells transfected with pMEHis-CaT1)", "format": "cell-based", "details": "preincubated 4 hours; for amount of 45Ca2+ incorporated into the cells versus control: 3.0 mM, ANOVA, FIG. 28"}, "human CaT1 [2]": {"target": "T1, human CaT1", "experiment": "45Ca2+ uptake by human CaT1 constant expression cells (CHO cells transfected with pMEHis-CaT1)", "format": "cell-based", "details": "for amount of 45Ca2+ incorporated, influence of metal ions: versus control, FIG. 14", "method": "That is, 1×10^5 cells/well of human CaT1 constant expression cells were cultured on a 24-well plate using a medium obtained by adding 10% FCS (fetal calf serum) was added to the above-mentioned DMEM/F12 medium at 37° C. for 5 days in a CO2 environment. After the medium was removed and the cells were washed with PBS buffer and HBSS buffer, to each well added was HBSS buffer containing 5.28 μM of ^45 Ca^2+, which was removed after a predetermined time (usually for 10 minutes excepting the case in which cultivation time is varied (time course is to be obtained)), the cells were solubilized with 1% triton (triton X-100), and then the cells were recovered. The amount of ^45Ca^2+ incorporated into the cells was measured using a liquid scintillation counter. As a control, CHO cells transfected with no human CaT1 gene were also subjected to the same operations to measure the amount of ^45Ca^2+ incorporated in the cells.\nOn the other hand, the effects of the metallic ion were examined by the same culture conditions and procedures as those in (4) except that 100 μM each of chloride salts La^3+, Gd^3+, Cd^2+, Co^2+, Fe^2+, Mn^2+, and Mg^2+ (10 mM for Mg2+ only) and 100 μM of choline chloride (Cho-Cl) were added to a HBSS buffer containing 5.28 μM of ^45Ca^2+.\nIn other words, in regards to a cultured human CaT1 constant expression cells evaluated by the same culture conditions and procedures as those in (4), a medium was displaced by a DMEM (—Ca) medium (Dulbecco's Modified Eagle Medium (cont.) Base Catalog No. 21068, manufactured by GIBCO™ Invitrogen Corporation: KCl 400.00 mg/l, NaCl 6400.00 mg/l, NaHCO3 3700.00 mg/l, NaH2PO4.H2O 125.00 mg/l, D-glucose 4500.00 mg/l, L-isoleucine 105.00 mg/l, L-leucine 105.00 mg/l, L-lysine.HCl 146.00 mg/l, L-tyrosin/2Na.2H2O 104.00mg/l) containing, as the food factor, 7% lactose (special grade reagents) 1% casein enzymatic degradation products, 1% guar gum hydrolysate, and soybean enzymatic degradation products (manufactured by Fuji oil Co., Ltd.), respectively, and the amount of ^45Ca^2+ incorporated into the cells was measured after preincubation for additional 4 hours.\nThe enzyme-treated sample obtained in (1) was dissolved in DMEM (—Ca) (the same as that used in Example 1(6)) so as to make a concentration of 1.0 (w/v)%. This was added to human CaT1 constant expression cells cultivated by the same culture conditions and the same procedures as those in Example 1(4) and CHO cells transfected with no human CaT1 gene, and these cells were preincubated for 4 hours. A medium contained 2.5% dialyzed (Spectra/POR MWCO:100) FCS and 2% L-glutamine solution.\nImmediately after completion of the pretreatement, the amount of ^45Ca^2+ incorporated into the cells was measured by the same technique as used in Example 1(4). On the other hand, the same procedure was followed without addition of the enzyme-treated samples as a control."}, "[3]": {"target": "human calcium transporter 1 (human CaT1) (human) (UniProt Q9H1D0)", "experiment": "cell-based or functional assay"}, "[4]": {"details": "100 μM chloride salt in HBSS buffer with 5.28 μM 45Ca2+"}}, "data": [{"compound": "C[C@H](N)C(=O)O", "note": "[Ala]", "values": [{"measurement": "amount of 45Ca2+ incorporated into the cells versus control", "setting": "human CaT1 [1]", "result": "no significant increase"}]}, {"compound": "[Cl][Cd][Cl]", "note": "[Cd^2+]", "values": [{"measurement": "amount of 45Ca2+ incorporated, influence of metal ions", "setting": "human CaT1 [2]; [4]", "result": "inhibit"}]}, {"compound": "[Co+2]", "note": "[Co^2+]", "values": [{"measurement": "amount of 45Ca2+ incorporated, influence of metal ions", "setting": "human CaT1 [2]; [4]", "result": "inhibit"}]}, {"compound": "[Fe+2]", "note": "[Fe^2+]", "values": [{"measurement": "amount of 45Ca2+ incorporated, influence of metal ions", "setting": "human CaT1 [2]; [4]", "result": "no significant difference"}]}, {"compound": "[Gd+3]", "note": "[Gd^3+]", "values": [{"measurement": "amount of 45Ca2+ incorporated, influence of metal ions", "setting": "human CaT1 [2]; [4]", "result": "inhibit"}]}, {"compound": "CC[C@H](C)[C@H](N)C(=O)O", "note": "[Ile]", "values": [{"measurement": "amount of 45Ca2+ incorporated into the cells versus control", "setting": "human CaT1 [1]", "result": "no significant increase"}]}, {"compound": "[La+3]", "note": "[La^3+]", "values": [{"measurement": "amount of 45Ca2+ incorporated, influence of metal ions", "setting": "human CaT1 [2]; [4]", "result": "inhibit"}]}, {"compound": "[Mg+2]", "note": "[Mg^2+]", "values": [{"measurement": "amount of 45Ca2+ incorporated, influence of metal ions", "setting": "human CaT1 [2]; 10 mM (Mg2+ only) in HBSS buffer with 5.28 μM 45Ca2+", "result": "no significant difference"}]}, {"compound": "[Mn+2]", "note": "[Mn^2+]", "values": [{"measurement": "amount of 45Ca2+ incorporated, influence of metal ions", "setting": "human CaT1 [2]; [4]", "result": "no significant difference"}]}, {"compound": "O=C(O)[C@@H]1CCCN1", "note": "[Pro]", "values": [{"measurement": "amount of 45Ca2+ incorporated into the cells versus control", "setting": "human CaT1 [1]", "result": "no significant increase"}]}, {"compound": "OC[C@H]1O[C@@H](O[C@H]2[C@H](O)[C@@H](O)C(O)O[C@@H]2CO)[C@H](O)[C@@H](O)[C@H]1O", "note": "(some centres unmarked) [lactose]", "values": [{"measurement": "amount of 45Ca2+ incorporated into the cells, influence of food factor", "setting": "human CaT1 [2]; 7% in DMEM (-Ca) medium, preincubation 4 hours, FIG. 15", "result": "increased"}]}, {"compound": "Ile-Pro-Ala (IPA) [synthetic peptide IPA]", "values": [{"measurement": "amounts of 45Ca2+ incorporated into the cells, influence of concentration", "setting": "human CaT1 [1]; 0, 0.25, 0.5, 1.0 mg/ml, FIG. 27", "result": "significantly increased depending on the concentration"}]}, {"compound": "Ile-Pro-Ala [peak 1]", "values": [{"measurement": "amount of 45Ca2+ incorporated into the cells, HPLC peaks", "setting": "human CaT1 [1]; 0.5 mg/ml, ANOVA p<0.05 versus other peaks and control, FIG. 25", "result": "increased significantly"}]}, {"compound": "Ile-Pro-Ile [IPI]", "values": [{"measurement": "amount of 45Ca2+ incorporated into the cells versus control", "setting": "human CaT1 [1]", "result": "no significant increase"}]}, {"compound": "enzymatic degradation product of cheese whey (CWP-D)", "values": [{"measurement": "Km of Ca2+ uptake with CWP-D pretreatment (+CWP-D)", "setting": "[3]", "result": 19, "unit": "µM"}, {"measurement": "Vmax of Ca2+ uptake with CWP-D pretreatment (+CWP-D) (pmol/mg/10 min)", "setting": "[3]", "result": 1.06}, {"measurement": "amount of 45Ca2+ incorporated into human CaT1 constant expression cells (fold of control, 1.0 (w/v)% CWP-D, 4 h pretreatment)", "setting": "[3]", "result": 8, "unit": "times"}]}]}
